Experimental data taken from BigSolDB 2.1.

CS(=O)(=O)c1ccc(C(=O)C2C(=O)CCCC2=O)c([N+](=O)[O-])c1
solubility (mole fraction)
Conditions	283.15 K	288.15 K	293.15 K	298.15 K	303.15 K	308.15 K	313.15 K	318.15 K	323.15 K
in 2-pentanol	0.000571	0.00081	0.00114	0.00158	0.00216	0.00294	0.00396	0.00561	0.00671
in MTBE	0.000245	0.000282	0.000322	0.000367	0.000397	0.000473	0.000536	0.000606	0.000684
in cyclohexane	0.000321	0.000402	0.000486	0.000616	0.000733	0.000888	0.00104	0.00122	0.00168
in ethanol	0.0023	0.00264	0.00316	0.00386	0.00455	0.00535	0.00627	0.00734	0.00857
in ethyl acetate	0.000565	0.000707	0.000879	0.00109	0.00132	0.00163	0.00198	0.00239	0.00287
in methanol	0.00351	0.00401	0.00457	0.00518	0.00567	0.00663	0.00748	0.00842	0.00946
in methyl acetate	0.00134	0.00152	0.00173	0.00194	0.00225	0.00255	0.00293	0.0033	0.00381
in n-butanol	0.000708	0.000999	0.00139	0.00193	0.00273	0.00355	0.00476	0.00601	0.00731
in n-butyl acetate	0.000418	0.000529	0.000664	0.000829	0.00103	0.00127	0.00155	0.0019	0.00231
in n-pentanol	0.000635	0.000889	0.00123	0.00168	0.00228	0.00306	0.00407	0.00536	0.007
in n-propanol	0.0013	0.00168	0.00216	0.00274	0.00376	0.00434	0.0054	0.00669	0.00793
in sec-butanol	0.000341	0.000507	0.000745	0.00108	0.00145	0.00199	0.00307	0.00425	0.00584
